# Read-outs that look alike come from different tables or passages of the source.
# Experiments:
# [1] = test system: PBMC from EBV seropositive donors; assay: Suppression of proliferative and cytokine responses to mitogen, antigens and allergens; type: cell-based, human; conditions: three EBV seropositive donors, FIG. 6
# [2] = test system: PBMC from EBV seropositive donors; type: cell-based, human; conditions: for IL-10 secretion by PBMC: EBV seropositive donors, peptides at 15 μg/ml, ELISA five days after stimulation; for gamma-IFN induction: control peptides of FIG. 6, seropositive donors
Substance,effect on proliferative and gamma-IFN responses against recall antigen (PPD) [1],IL-10 secretion by PBMC [2],further results
FLGIVLFIFGCLLVLGIWIY [P22],inhibit proliferative responses,IL-10 inducing,
HDPLPQDPDNTDDNGPQDPD [P56],,,gamma-IFN induction [2]: gamma-IFN inducing
ILIIFIFRRDLLCPLGALCI [P14],,shown to induce IL-10,
LFIFGCLLVLGIWIYLLEML [P23],inhibit proliferative responses,IL-10 inducing,
LILLIIALYLQQNWWTLLVD [P31],inhibit proliferative responses,IL-10 inducing,
LLFWLYIVMSDWTGGALLVL [P8],,shown to induce IL-10,
LLLLALLFWLYIVMSDWTGG [P7],inhibit proliferative responses,IL-10 inducing,IL-10 secretion by PBMC ([2]; listed as peptide 7): one of many effective Tr1 IL-10 inducers
LLLMITLLLIALWNLHGQAL [P18],inhibit proliferative responses,IL-10 inducing,
LLWLLLFLAILIWMYYHGQR [P35],inhibit proliferative responses,IL-10 inducing,
PRGPPLSSSLGLALLLLLLA [P4],inhibit proliferative responses,IL-10 inducing,"percentage of EBV seropositive donors whose PBMC responded with IL-10 ([2]; 20 seropositive donors, peptide 15 μg/ml): 80%"
QQNWWTLLVDLLWLLLFLAI [P33],,,gamma-IFN induction [2]: gamma-IFN inducing
TIWQLLAFFLAFFLDLILLY [P28],,,gamma-IFN induction [2]: gamma-IFN inducing
"concanavalin A [Con A, reference compound]",,,response pattern to control mitogen / recall antigen ([2]; regardless of EBV serological status): induced responses dominated by proliferation and γ-IFN production

# — patent US20060057156A1, “Materials and methods for inductions of immune tolerance” (priority 2002, published 2006)
